Measurements published in PubChem BioAssay (NCI).
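Assay format: 96-well plates, 48-hour exposure. Here, GI50 denotes the concentration required for 50% inhibition of growth. TGI: concentration producing complete growth inhibition.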

Columns and labels:
Assay in all cases: inhibition of tumour cell growth, NCI panel, 48 h
[1] = system: NCI-H522 lung
[2] = system: TK-10 renal
[3] = system: SNB-19 CNS
[4] = system: CAKI-1 renal
[5] = system: T-47D breast
[6] = system: HCT-116 colon
[7] = system: SW-620 colon
[8] = system: HL-60(TB) leukemia
[9] = system: NCI/ADR-RES ovarian
[10] = system: MALME-3M melanoma

Nc1n[nH]c2ccc([C@@H]3Nc4cc5[nH]ncc5cc4[C@H]4C5CCC(C5)[C@@H]34)cc12 (stereo partly drawn)
GI50 [1]: 0.396 µM | TGI [1]: > 45.6 µM | GI50 [2]: 17.2 µM | TGI [2]: > 95.9 µM | GI50 [3]: 0.436 µM | TGI [3]: > 100 µM | GI50 [4]: 0.355 µM | TGI [4]: > 39.2 µM | GI50 [5]: 0.498 µM | TGI [5]: 79.8 µM | GI50 [6]: 0.416 µM | TGI [6]: > 100 µM | GI50 [7]: 0.392 µM | TGI [7]: > 100 µM | GI50 [8]: 0.298 µM | TGI [8]: 2.24 µM | GI50 [9]: 0.807 µM | TGI [9]: > 100 µM

CCOC1OC(=O)[C@H]2[C@@H]1[C@@H]1CC[C@H]2O1 (stereo partly drawn)
GI50 [1]: > 100 µM | TGI [1]: > 100 µM | GI50 [2]: > 100 µM | TGI [2]: > 100 µM | GI50 [3]: > 100 µM | TGI [3]: > 100 µM | GI50 [4]: > 100 µM | TGI [4]: > 100 µM | GI50 [5]: > 59.1 µM | TGI [5]: > 100 µM | GI50 [6]: > 100 µM | TGI [6]: > 100 µM | GI50 [7]: > 100 µM | TGI [7]: > 100 µM | GI50 [8]: > 100 µM | TGI [8]: > 100 µM | GI50 [9]: > 100 µM | TGI [9]: > 100 µM

COc1cc2c(c(OC)c1OC)-c1c(cc3c(c1OC)OCO3)CC(C)C(C)(O)C2OC(=O)c1ccccc1 (stereo not drawn)
TGI [10]: > 100 µM | TGI [1]: > 100 µM | TGI [2]: > 100 µM | TGI [3]: > 100 µM | TGI [4]: > 100 µM | TGI [5]: > 100 µM | TGI [6]: > 100 µM | TGI [7]: > 100 µM | TGI [8]: 48.7 µM

O=C(O)COc1ccc(C(=O)/C(SS/C(C(=O)c2ccc(OCC(=O)O)c(Cl)c2Cl)=C2\C=C(c3ccc(Br)cc3)SS2)=C2/C=C(c3ccc(Br)cc3)SS2)c(Cl)c1Cl
TGI [10]: 41.9 µM | TGI [1]: 3.95 µM | TGI [2]: > 100 µM | TGI [3]: 33.1 µM | TGI [4]: 99.4 µM | TGI [5]: 8.61 µM | TGI [6]: 22.1 µM | TGI [7]: 31.2 µM | TGI [8]: 4.67 µM

C=C1C(=O)O[C@H]2[C@H]1CC/C(CNC(=O)/C=C/c1ccccc1)=C\CC[C@@]1(C)O[C@@H]21
GI50 [10]: 1.45 µM | TGI [10]: 3.29 µM | GI50 [1]: 0.357 µM | TGI [1]: 1.71 µM | GI50 [2]: 1.42 µM | TGI [2]: 3.03 µM | GI50 [3]: 2.39 µM | TGI [3]: 10.9 µM | GI50 [4]: 1.17 µM | TGI [4]: 2.49 µM | GI50 [5]: 1.44 µM | TGI [5]: 4.3 µM | GI50 [6]: 0.465 µM | TGI [6]: 1.75 µM | GI50 [7]: 0.577 µM | TGI [7]: 2.32 µM | GI50 [9]: 3.29 µM | TGI [9]: 14.5 µM

CCN(CC)C(=O)COc1cc2c(O)c3c(O)c(C)c4c(c13)C(=O)C(C)(OC=CC(OC)C(C)C(OC(C)=O)C(C)C(O)C(C)C(O)C(C)C=CC=C(C)C(=O)N2)O4 (stereo not drawn)
TGI [10]: > 100 µM | TGI [2]: > 100 µM | TGI [3]: > 100 µM | TGI [4]: > 100 µM | TGI [5]: > 100 µM | TGI [6]: > 100 µM | TGI [7]: > 100 µM | TGI [9]: > 100 µM

O=C(NN1C(=O)CSC1c1ccc(F)cc1)C(O)c1ccccc1 (stereo not drawn)
GI50 [1]: 93.6 µM | TGI [1]: > 100 µM | GI50 [2]: > 100 µM | TGI [2]: > 100 µM | GI50 [3]: > 100 µM | TGI [3]: > 100 µM | GI50 [4]: > 100 µM | TGI [4]: > 100 µM | GI50 [5]: 59.5 µM | TGI [5]: > 100 µM | GI50 [6]: > 100 µM | TGI [6]: > 100 µM | GI50 [7]: > 100 µM | TGI [7]: > 100 µM | GI50 [8]: 91.5 µM | TGI [8]: > 100 µM | GI50 [9]: > 100 µM | TGI [9]: > 100 µM

O=C(Nc1ccccc1Cl)c1cccc(NC2=C(Cl)C(=O)N(Cc3ccccc3)C2=O)c1
GI50 [1]: 7.72 µM | TGI [1]: 31.1 µM | GI50 [3]: 60.5 µM | TGI [3]: > 100 µM | GI50 [4]: 23.2 µM | TGI [4]: 66.9 µM | GI50 [5]: > 100 µM | TGI [5]: > 100 µM | GI50 [6]: 3.18 µM | TGI [6]: 13.3 µM | GI50 [7]: 26.1 µM | TGI [7]: > 100 µM | GI50 [8]: 1.4 µM | TGI [8]: 20.8 µM | GI50 [9]: 46.4 µM | TGI [9]: > 100 µM

C=C1CC[C@@H]2[C@](C)(COC(C)=O)[C@H](OC(C)=O)CC[C@@]2(C)[C@@H]1CC(Nc1ccc(S(=O)(=O)Nc2nccs2)cc1)C1=CCOC1=O (stereo partly drawn)
GI50 [1]: 1.72 µM | TGI [1]: 4.32 µM | GI50 [2]: 9.45 µM | TGI [2]: 21.2 µM | GI50 [3]: 4.36 µM | TGI [3]: 16.1 µM | GI50 [4]: 3.8 µM | TGI [4]: 14.2 µM | GI50 [5]: 3.39 µM | TGI [5]: 20.8 µM | GI50 [6]: 1.75 µM | TGI [6]: 3.75 µM | GI50 [7]: 1.85 µM | TGI [7]: 3.98 µM | GI50 [8]: 3.01 µM | TGI [8]: 13.3 µM | GI50 [9]: 2.97 µM | TGI [9]: 12.7 µM

COc1ccc2c(c1)C(=O)c1c-2n(CCCN)c(=O)c2cc([N+](=O)[O-])ccc12
GI50 [10]: 2.25 µM | TGI [10]: 7.64 µM | GI50 [1]: < 0.01 µM | TGI [1]: 2.91 µM | GI50 [2]: 3.33 µM | TGI [2]: 10 µM | GI50 [3]: < 0.01 µM | TGI [3]: 2.13 µM | GI50 [4]: < 0.01 µM | TGI [4]: < 0.01 µM | GI50 [5]: < 0.01 µM | TGI [5]: 1.86 µM | GI50 [6]: < 0.01 µM | TGI [6]: 0.0119 µM | GI50 [7]: < 0.01 µM | TGI [7]: 0.146 µM

O=C1c2ccccc2C(=O)N1C1(C(=O)NC2(C(=O)O)CCCC2)CCCC1
TGI [10]: > 100 µM | TGI [1]: > 100 µM | TGI [2]: > 100 µM | TGI [3]: > 100 µM | TGI [4]: > 100 µM | TGI [5]: > 100 µM | TGI [6]: > 100 µM | TGI [7]: > 100 µM | TGI [9]: > 100 µM

COc1ccc(-c2ccc(/C=N/n3c(COc4ccccc4Cl)n[nH]c3=S)o2)c([N+](=O)[O-])c1
GI50 [1]: 49 µM | TGI [1]: > 100 µM | GI50 [2]: 13.2 µM | TGI [2]: 39.5 µM | GI50 [3]: 42.2 µM | TGI [3]: > 100 µM | GI50 [4]: 24.6 µM | TGI [4]: 59.3 µM | GI50 [5]: 21.8 µM | TGI [5]: 86.2 µM | GI50 [6]: 17.3 µM | TGI [6]: 33.8 µM | GI50 [8]: 22.4 µM | TGI [8]: 56.4 µM | GI50 [9]: 22.6 µM | TGI [9]: 57.1 µM
